Where “and” joins values, the source holds several entries; their conditions need not be identical. Equal entries are not always repeated.
Test system: 227483-062-R1-J1-PDC complex spheroids with HUVEC/MSC, viability
Test: Anticancer human tumor 227483-062-R1-J1-PDC patient-derived pancreatic carcinoma cell line growth inhibition [CLK]
Conditions: for viability, T/C: stronger effect = lower value
Method in brief: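 Multi-cell-type spheroids combined patient-derived tumor cells with HUVEC endothelial cells and human mesenchymal stem cells. Paired agents were dosed in half-log steps down from about clinical Cmax, or from 10 microM where Cmax was unknown.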

[1] = curve of first compound, second compound 0.0316 µM
[2] = curve of first compound, second compound 0.1 µM
[3] = curve of first compound, second compound 0.316 µM
[4] = curve of first compound, second compound 1 µM
[5] = curve of first compound, second compound 3.16 µM
[6] = curve of first compound, second compound 10 µM
[7] = second compound 0.0316 µM, first compound 0.0316 µM
[8] = second compound 0.0316 µM, first compound 0.1 µM
[9] = second compound 0.0316 µM, first compound 0.316 µM
[10] = second compound 0.0316 µM, first compound 1 µM
[11] = second compound 0.0316 µM, first compound 3.16 µM
[12] = second compound 0.0316 µM, first compound 10 µM
[13] = second compound 0.1 µM, first compound 0.0316 µM
[14] = second compound 0.1 µM, first compound 0.1 µM
[15] = second compound 0.1 µM, first compound 0.316 µM
[16] = second compound 0.1 µM, first compound 1 µM
[17] = second compound 0.1 µM, first compound 3.16 µM
[18] = second compound 0.1 µM, first compound 10 µM
[19] = second compound 0.316 µM, first compound 0.0316 µM
[20] = second compound 0.316 µM, first compound 0.1 µM
[21] = second compound 0.316 µM, first compound 0.316 µM
[22] = second compound 0.316 µM, first compound 1 µM
[23] = second compound 0.316 µM, first compound 3.16 µM
[24] = second compound 0.316 µM, first compound 10 µM
[25] = second compound 1 µM, first compound 0.0316 µM
[26] = second compound 1 µM, first compound 0.1 µM
[27] = second compound 1 µM, first compound 0.316 µM
[28] = second compound 1 µM, first compound 1 µM
[29] = second compound 1 µM, first compound 3.16 µM
[30] = second compound 1 µM, first compound 10 µM
[31] = second compound 3.16 µM, first compound 0.0316 µM
[32] = second compound 3.16 µM, first compound 0.1 µM
[33] = second compound 3.16 µM, first compound 0.316 µM
[34] = second compound 3.16 µM, first compound 1 µM
[35] = second compound 3.16 µM, first compound 3.16 µM
[36] = second compound 3.16 µM, first compound 10 µM
[37] = second compound 10 µM, first compound 0.0316 µM
[38] = second compound 10 µM, first compound 0.1 µM
[39] = second compound 10 µM, first compound 0.316 µM
[40] = second compound 10 µM, first compound 1 µM
[41] = second compound 10 µM, first compound 3.16 µM
[42] = second compound 10 µM, first compound 10 µM
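Note: spheroids exposed to compounds for seven days before readout.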
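Throughout, for viability, T/C: percent of DMSO vehicle control luminescence as 100% viability.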

**Q.** Which IC50 [1] does the source give for `CC(=O)O[C@H]1C(=O)[C@@]2(C)[C@H]([C@H](OC(=O)c3ccccc3)[C@]3(O)C[C@H](OC(=O)[C@H](O)[C@@H](NC(=O)c4ccccc4)c4ccccc4)C(C)=C1C3(C)C)[C@]1(OC(C)=O)CO[C@@H]1C[C@@H]2O` + CN1CCN(c2cc(C(=O)Nc3cc4cc(-c5cnn(C)c5)ccc4cn3)ccn2)CC1 here?
**A.** < 31.6 nM

**Q.** And the IC50 [2]?
**A.** < 31.6 nM

**Q.** And the IC50 [3]?
**A.** < 31.6 nM

**Q.** What about the IC50 [4] of the same compound?
**A.** < 31.6 nM

**Q.** And the IC50 [5]?
**A.** < 31.6 nM

**Q.** And the IC50 [6]?
**A.** < 31.6 nM

**Q.** And the viability, T/C [7]?
**A.** 27.4%

**Q.** What about the viability, T/C [8] of the same compound?
**A.** 22.2%

**Q.** And the viability, T/C [9]?
**A.** 31.2%

**Q.** And the viability, T/C [10]?
**A.** 31.4%

**Q.** What about the viability, T/C [11] of the same compound?
**A.** 36.9%

**Q.** What about the viability, T/C [12] of the same compound?
**A.** 43.8%

**Q.** What about the viability, T/C [13] of the same compound?
**A.** 28.6%

**Q.** What about the viability, T/C [14] of the same compound?
**A.** 32.8%

**Q.** What about the viability, T/C [15] of the same compound?
**A.** 35%

**Q.** What about the viability, T/C [16] of the same compound?
**A.** 38%

**Q.** What about the viability, T/C [17] of the same compound?
**A.** 40.7%

**Q.** What about the viability, T/C [18] of the same compound?
**A.** 40.6%

**Q.** And the viability, T/C [19]?
**A.** 2.61%

**Q.** What about the viability, T/C [20] of the same compound?
**A.** 6.66%

**Q.** And the viability, T/C [21]?
**A.** 2.59%

**Q.** And the viability, T/C [22]?
**A.** 4.5%

**Q.** And the viability, T/C [23]?
**A.** 5.51%

**Q.** And the viability, T/C [24]?
**A.** 6.7%

**Q.** What about the viability, T/C [25] of the same compound?
**A.** 1.8%

**Q.** And the viability, T/C [26]?
**A.** 2.26%

**Q.** What about the viability, T/C [27] of the same compound?
**A.** 3.26%

**Q.** And the viability, T/C [28]?
**A.** 4%

**Q.** And the viability, T/C [29]?
**A.** 1.87%

**Q.** And the viability, T/C [30]?
**A.** 2.01%

**Q.** What about the viability, T/C [31] of the same compound?
**A.** 7.44%

**Q.** What about the viability, T/C [32] of the same compound?
**A.** 3.02%

**Q.** What about the viability, T/C [33] of the same compound?
**A.** 3.51%

**Q.** What about the viability, T/C [34] of the same compound?
**A.** 2.58%

**Q.** What about the viability, T/C [35] of the same compound?
**A.** 5.48%

**Q.** And the viability, T/C [36]?
**A.** 4.46%

**Q.** What about the viability, T/C [37] of the same compound?
**A.** 1.55%

**Q.** And the viability, T/C [38]?
**A.** 1.61%

**Q.** What about the viability, T/C [39] of the same compound?
**A.** 1.94%

**Q.** And the viability, T/C [40]?
**A.** 1.68%

**Q.** What about the viability, T/C [41] of the same compound?
**A.** 1.56%

**Q.** What about the viability, T/C [42] of the same compound?
**A.** 1.39%

**Q.** For `Nc1ccccc1NC(=O)c1ccc(CNC(=O)OCc2cccnc2)cc1`, which viability, T/C (compound 0.0316 µM) is on record?
**A.** 102% and 79.6%

**Q.** What about the viability, T/C (compound 0.1 µM) of the same compound?
**A.** 107% and 81.1%

**Q.** And the viability, T/C (compound 0.316 µM)?
**A.** 116% and 94.4%

**Q.** What about the viability, T/C (compound 1 µM) of the same compound?
**A.** 121% and 101%

**Q.** And the viability, T/C (compound 3.16 µM)?
**A.** 135% and 104%

**Q.** What about the viability, T/C (compound 10 µM) of the same compound?
**A.** 87.6% and 71.5%

**Q.** What about the IC50 (curve of compound) of the same compound?
**A.** > 10000 nM

**Q.** With `COC1C=CCC(C)C(C)S(=O)(=O)NC(=O)c2ccc3c(c2)N(CC2CCC21)CC1(CCCc2cc(Cl)ccc21)CO3` (stereo not given) + CN1CCN(c2cc(C(=O)Nc3cc4cc(-c5cnn(C)c5)ccc4cn3)ccn2)CC1 as the compound, how does the IC50 [1] read?
**A.** 5880 nM

**Q.** What about the IC50 [2] of the same compound?
**A.** 306 nM

**Q.** And the IC50 [3]?
**A.** < 31.6 nM

**Q.** And the IC50 [4]?
**A.** < 31.6 nM

**Q.** What about the IC50 [5] of the same compound?
**A.** < 31.6 nM

**Q.** What about the IC50 [6] of the same compound?
**A.** < 31.6 nM

**Q.** And the viability, T/C [7]?
**A.** 94.5%

**Q.** What about the viability, T/C [8] of the same compound?
**A.** 89.8%

**Q.** What about the viability, T/C [9] of the same compound?
**A.** 109%

**Q.** And the viability, T/C [10]?
**A.** 87.1%

**Q.** And the viability, T/C [11]?
**A.** 82.4%

**Q.** What about the viability, T/C [12] of the same compound?
**A.** 23.2%

**Q.** And the viability, T/C [13]?
**A.** 74.2%

**Q.** What about the viability, T/C [14] of the same compound?
**A.** 77.4%

**Q.** And the viability, T/C [15]?
**A.** 45.6%

**Q.** And the viability, T/C [16]?
**A.** 25.9%

**Q.** What about the viability, T/C [17] of the same compound?
**A.** 14.9%

**Q.** And the viability, T/C [18]?
**A.** 9.47%

**Q.** What about the viability, T/C [19] of the same compound?
**A.** 5.64%

**Q.** What about the viability, T/C [20] of the same compound?
**A.** 6.22%

**Q.** What about the viability, T/C [21] of the same compound?
**A.** 4.57%

**Q.** And the viability, T/C [22]?
**A.** 5.41%

**Q.** And the viability, T/C [23]?
**A.** 4.64%

**Q.** And the viability, T/C [24]?
**A.** 2.38%

**Q.** What about the viability, T/C [25] of the same compound?
**A.** 1.87%

**Q.** What about the viability, T/C [26] of the same compound?
**A.** 1.41%

**Q.** What about the viability, T/C [27] of the same compound?
**A.** 1.74%

**Q.** And the viability, T/C [28]?
**A.** 2.02%

**Q.** What about the viability, T/C [29] of the same compound?
**A.** 3.06%

**Q.** What about the viability, T/C [30] of the same compound?
**A.** 3.77%

**Q.** And the viability, T/C [31]?
**A.** 4.46%

**Q.** What about the viability, T/C [32] of the same compound?
**A.** 3.64%

**Q.** What about the viability, T/C [33] of the same compound?
**A.** 3.99%

**Q.** What about the viability, T/C [34] of the same compound?
**A.** 2.73%

**Q.** And the viability, T/C [35]?
**A.** 2.81%

**Q.** What about the viability, T/C [36] of the same compound?
**A.** 1.89%

**Q.** What about the viability, T/C [37] of the same compound?
**A.** 4.15%

**Q.** And the viability, T/C [38]?
**A.** 2.18%

**Q.** What about the viability, T/C [39] of the same compound?
**A.** 2.3%

**Q.** What about the viability, T/C [40] of the same compound?
**A.** 2.91%

**Q.** What about the viability, T/C [41] of the same compound?
**A.** 2.23%

**Q.** And the viability, T/C [42]?
**A.** 1.54%

**Q.** Which viability, T/C (compound 0.0316 µM) does the source give for `O=C(c1cc(Cc2n[nH]c(=O)c3ccccc23)ccc1F)N1CCN(C(=O)C2CC2)CC1` here?
**A.** 98% and 94.5%

**Q.** What about the viability, T/C (compound 0.1 µM) of the same compound?
**A.** 100% and 97.8%

**Q.** And the viability, T/C (compound 0.316 µM)?
**A.** 101% and 98.4%

**Q.** What about the viability, T/C (compound 1 µM) of the same compound?
**A.** 107% and 99.2%

**Q.** What about the viability, T/C (compound 3.16 µM) of the same compound?
**A.** 114% and 91.3%

**Q.** And the viability, T/C (compound 10 µM)?
**A.** 91.4% and 100%

**Q.** What about the IC50 (curve of compound) of the same compound?
**A.** > 10000 nM

**Q.** For `COc1cccc2c1C(=O)c1c(O)c3c(c(O)c1C2=O)CC(O)(C(=O)CO)CC3OC1CC(N)C(O)C(C)O1` (stereo not given), which viability, T/C (compound 0.0316 µM) is on record?
**A.** 90% and 75.6%

**Q.** What about the viability, T/C (compound 0.1 µM) of the same compound?
**A.** 108% and 58%

**Q.** And the viability, T/C (compound 0.316 µM)?
**A.** 54.2% and 42.7%

**Q.** And the viability, T/C (compound 1 µM)?
**A.** 34.5% and 24.4%

**Q.** And the viability, T/C (compound 3.16 µM)?
**A.** 7.31% and 2.77%

**Q.** What about the viability, T/C (compound 10 µM) of the same compound?
**A.** 8.24% and 9.84%

**Q.** What about the IC50 (curve of compound) of the same compound?
**A.** 483 nM and 188 nM

— PubChem BioAssay AID2060623 (Molecular Pharmacology Branch, DTP, NCI, 2025)
